Reference: article PMC7180948, “New Insights into 4-Anilinoquinazolines as Inhibitors of Cardiac Troponin I–Interacting Kinase (TNNi3K)” (Molecules, 2020)

Legend:
Experiment in all cases: biochemical
Design in all cases: KINOMEscan competition binding panel (Eurofins DiscoverX), single concentration, percent inhibition
Details in all cases: read-out: 15 at 1 µM % inhibition
ERK2 = molecular target: T1, ERK2 (Homo sapiens, UniProt P28482)
T1 construct: gene MAPK1
In short: (§1)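 Values come from single-concentration (1 µM) profiling in the Eurofins DiscoverX KINOMEscan competition-binding platform, which covers over 400 kinases.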

PDGFRA = PDGFRA (Homo sapiens, UniProt P16234)
In short: as §1

MAP4K5 = MAP4K5 (Homo sapiens, UniProt Q9Y4K4)
In short: as §1

TIE2 = molecular target: T2, TIE2 (Homo sapiens, UniProt Q02763)
T2 construct: gene TEK
In short: as §1

[1] = molecular target: T3, ABL1(E255K)-phosphorylated (Homo sapiens, UniProt P00519, E255K)
T3 construct: phosphorylated
T3 sequence (P00519 whole entry E255K): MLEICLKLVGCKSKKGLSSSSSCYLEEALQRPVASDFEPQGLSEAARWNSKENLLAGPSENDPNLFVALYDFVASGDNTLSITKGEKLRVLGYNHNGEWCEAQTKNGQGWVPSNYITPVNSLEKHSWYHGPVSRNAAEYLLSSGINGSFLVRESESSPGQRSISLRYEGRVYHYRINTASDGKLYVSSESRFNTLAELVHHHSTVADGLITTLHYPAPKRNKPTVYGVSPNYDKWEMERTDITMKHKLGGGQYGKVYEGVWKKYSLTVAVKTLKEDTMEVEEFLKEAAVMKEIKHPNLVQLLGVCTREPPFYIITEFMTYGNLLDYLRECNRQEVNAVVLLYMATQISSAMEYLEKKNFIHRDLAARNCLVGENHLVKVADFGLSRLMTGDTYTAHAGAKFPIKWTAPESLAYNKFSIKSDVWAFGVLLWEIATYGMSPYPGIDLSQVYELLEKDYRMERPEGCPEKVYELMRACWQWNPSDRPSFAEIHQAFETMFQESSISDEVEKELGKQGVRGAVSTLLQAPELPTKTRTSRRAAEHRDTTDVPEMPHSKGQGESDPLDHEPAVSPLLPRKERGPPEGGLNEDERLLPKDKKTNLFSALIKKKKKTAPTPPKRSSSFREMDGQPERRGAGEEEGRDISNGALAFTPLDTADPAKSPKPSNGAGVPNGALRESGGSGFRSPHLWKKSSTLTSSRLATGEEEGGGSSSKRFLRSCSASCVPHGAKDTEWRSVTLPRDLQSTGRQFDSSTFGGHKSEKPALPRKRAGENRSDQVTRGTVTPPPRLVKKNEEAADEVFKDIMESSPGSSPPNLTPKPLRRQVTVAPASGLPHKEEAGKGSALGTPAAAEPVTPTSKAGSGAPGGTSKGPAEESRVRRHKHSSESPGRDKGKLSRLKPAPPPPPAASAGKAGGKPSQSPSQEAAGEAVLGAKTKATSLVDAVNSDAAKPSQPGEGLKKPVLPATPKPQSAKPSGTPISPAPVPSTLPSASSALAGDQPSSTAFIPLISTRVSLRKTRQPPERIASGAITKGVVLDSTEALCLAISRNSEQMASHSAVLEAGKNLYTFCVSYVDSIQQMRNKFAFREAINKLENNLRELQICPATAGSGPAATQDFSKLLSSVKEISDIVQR
In short: as §1

CSNK1E = CSNK1E (Homo sapiens, UniProt P49674)
In short: as §1

DAPK2 = DAPK2 (Homo sapiens, UniProt Q9UIK4)
DAPK2, sequence (Q9UIK4 whole entry): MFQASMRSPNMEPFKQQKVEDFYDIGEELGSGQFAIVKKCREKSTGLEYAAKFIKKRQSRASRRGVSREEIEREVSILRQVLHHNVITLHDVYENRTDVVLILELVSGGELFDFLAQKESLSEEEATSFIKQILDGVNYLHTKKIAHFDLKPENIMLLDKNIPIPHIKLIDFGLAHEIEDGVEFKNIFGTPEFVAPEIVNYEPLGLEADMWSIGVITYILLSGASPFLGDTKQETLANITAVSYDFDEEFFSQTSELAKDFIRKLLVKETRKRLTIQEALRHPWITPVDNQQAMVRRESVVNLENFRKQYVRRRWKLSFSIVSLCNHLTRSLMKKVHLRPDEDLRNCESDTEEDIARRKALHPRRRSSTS
In short: as §1

ALK = ALK (Homo sapiens, UniProt Q9UM73)
In short: as §1

INSRR = INSRR (Homo sapiens, UniProt P14616)
INSRR, sequence (P14616 whole entry): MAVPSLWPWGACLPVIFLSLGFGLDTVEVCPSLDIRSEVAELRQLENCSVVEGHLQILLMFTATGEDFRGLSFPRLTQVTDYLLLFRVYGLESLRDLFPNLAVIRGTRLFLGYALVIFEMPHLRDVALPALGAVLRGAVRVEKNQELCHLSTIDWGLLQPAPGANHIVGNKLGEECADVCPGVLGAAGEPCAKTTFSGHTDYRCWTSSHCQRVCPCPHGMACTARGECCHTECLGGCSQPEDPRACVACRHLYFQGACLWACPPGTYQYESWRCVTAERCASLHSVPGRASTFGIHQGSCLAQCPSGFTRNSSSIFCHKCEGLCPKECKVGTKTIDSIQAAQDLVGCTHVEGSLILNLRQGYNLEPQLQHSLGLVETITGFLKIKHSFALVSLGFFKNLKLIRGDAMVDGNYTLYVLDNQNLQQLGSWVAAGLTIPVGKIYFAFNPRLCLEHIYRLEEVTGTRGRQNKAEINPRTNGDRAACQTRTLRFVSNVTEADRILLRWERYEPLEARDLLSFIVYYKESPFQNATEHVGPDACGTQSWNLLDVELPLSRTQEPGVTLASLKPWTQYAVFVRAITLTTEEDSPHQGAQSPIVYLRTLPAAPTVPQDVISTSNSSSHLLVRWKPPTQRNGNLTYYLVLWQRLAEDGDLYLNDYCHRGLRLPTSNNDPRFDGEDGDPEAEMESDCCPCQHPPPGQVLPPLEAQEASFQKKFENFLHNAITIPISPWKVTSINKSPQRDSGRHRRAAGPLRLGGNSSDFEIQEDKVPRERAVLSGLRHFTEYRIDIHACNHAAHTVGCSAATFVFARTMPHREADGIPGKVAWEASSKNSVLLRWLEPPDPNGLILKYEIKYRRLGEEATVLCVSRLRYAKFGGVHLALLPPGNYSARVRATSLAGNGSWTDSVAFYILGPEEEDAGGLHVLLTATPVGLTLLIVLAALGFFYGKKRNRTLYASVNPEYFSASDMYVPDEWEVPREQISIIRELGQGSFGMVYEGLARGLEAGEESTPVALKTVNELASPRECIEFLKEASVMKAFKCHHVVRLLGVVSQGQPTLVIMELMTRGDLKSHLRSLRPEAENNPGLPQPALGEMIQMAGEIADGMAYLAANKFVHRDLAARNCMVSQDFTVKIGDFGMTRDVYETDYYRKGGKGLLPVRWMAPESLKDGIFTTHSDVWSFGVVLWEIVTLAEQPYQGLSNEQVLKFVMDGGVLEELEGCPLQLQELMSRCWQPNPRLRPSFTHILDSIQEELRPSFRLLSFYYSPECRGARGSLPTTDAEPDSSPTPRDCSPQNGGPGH
In short: as §1

[2] = molecular target: T4, RSK4(Kin.Dom.2-C-terminal) (Homo sapiens, UniProt Q9UK32)
T4 construct: gene RPS6KA6; Kin.Dom.2-C-terminal
In short: as §1

AXL = AXL (Homo sapiens, UniProt P30530)
AXL, sequence (P30530 whole entry): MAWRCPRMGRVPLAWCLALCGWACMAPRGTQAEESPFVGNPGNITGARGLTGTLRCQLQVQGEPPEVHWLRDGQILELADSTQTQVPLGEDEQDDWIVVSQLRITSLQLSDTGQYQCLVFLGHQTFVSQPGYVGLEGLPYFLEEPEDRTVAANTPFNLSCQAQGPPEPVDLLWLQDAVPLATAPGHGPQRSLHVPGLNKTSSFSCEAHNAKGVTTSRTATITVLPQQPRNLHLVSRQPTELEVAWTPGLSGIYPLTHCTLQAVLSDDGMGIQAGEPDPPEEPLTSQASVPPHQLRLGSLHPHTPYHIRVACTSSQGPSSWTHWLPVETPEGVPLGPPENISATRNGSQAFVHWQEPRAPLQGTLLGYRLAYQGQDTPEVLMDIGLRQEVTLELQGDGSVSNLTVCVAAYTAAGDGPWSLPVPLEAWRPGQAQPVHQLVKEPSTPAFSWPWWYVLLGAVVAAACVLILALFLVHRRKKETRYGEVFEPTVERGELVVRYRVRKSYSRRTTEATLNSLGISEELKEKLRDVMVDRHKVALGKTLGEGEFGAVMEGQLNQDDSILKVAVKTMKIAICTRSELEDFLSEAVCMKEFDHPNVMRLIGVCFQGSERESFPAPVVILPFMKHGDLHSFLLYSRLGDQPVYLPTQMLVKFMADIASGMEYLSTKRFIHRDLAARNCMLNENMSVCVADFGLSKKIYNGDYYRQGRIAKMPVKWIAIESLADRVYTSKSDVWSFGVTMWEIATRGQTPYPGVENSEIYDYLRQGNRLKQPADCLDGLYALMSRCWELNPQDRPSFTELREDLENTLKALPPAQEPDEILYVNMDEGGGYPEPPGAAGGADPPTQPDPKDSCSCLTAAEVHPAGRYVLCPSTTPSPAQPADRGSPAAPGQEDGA
In short: as §1

PRKD2 = PRKD2 (Homo sapiens, UniProt Q9BZL6)
In short: as §1

CSF1R-autoinhibited = CSF1R-autoinhibited (Homo sapiens, UniProt P07333)
In short: as §1

LZK = molecular target: T5, LZK (Homo sapiens, UniProt O43283)
T5 construct: gene MAP3K13
T5 sequence (O43283 whole entry): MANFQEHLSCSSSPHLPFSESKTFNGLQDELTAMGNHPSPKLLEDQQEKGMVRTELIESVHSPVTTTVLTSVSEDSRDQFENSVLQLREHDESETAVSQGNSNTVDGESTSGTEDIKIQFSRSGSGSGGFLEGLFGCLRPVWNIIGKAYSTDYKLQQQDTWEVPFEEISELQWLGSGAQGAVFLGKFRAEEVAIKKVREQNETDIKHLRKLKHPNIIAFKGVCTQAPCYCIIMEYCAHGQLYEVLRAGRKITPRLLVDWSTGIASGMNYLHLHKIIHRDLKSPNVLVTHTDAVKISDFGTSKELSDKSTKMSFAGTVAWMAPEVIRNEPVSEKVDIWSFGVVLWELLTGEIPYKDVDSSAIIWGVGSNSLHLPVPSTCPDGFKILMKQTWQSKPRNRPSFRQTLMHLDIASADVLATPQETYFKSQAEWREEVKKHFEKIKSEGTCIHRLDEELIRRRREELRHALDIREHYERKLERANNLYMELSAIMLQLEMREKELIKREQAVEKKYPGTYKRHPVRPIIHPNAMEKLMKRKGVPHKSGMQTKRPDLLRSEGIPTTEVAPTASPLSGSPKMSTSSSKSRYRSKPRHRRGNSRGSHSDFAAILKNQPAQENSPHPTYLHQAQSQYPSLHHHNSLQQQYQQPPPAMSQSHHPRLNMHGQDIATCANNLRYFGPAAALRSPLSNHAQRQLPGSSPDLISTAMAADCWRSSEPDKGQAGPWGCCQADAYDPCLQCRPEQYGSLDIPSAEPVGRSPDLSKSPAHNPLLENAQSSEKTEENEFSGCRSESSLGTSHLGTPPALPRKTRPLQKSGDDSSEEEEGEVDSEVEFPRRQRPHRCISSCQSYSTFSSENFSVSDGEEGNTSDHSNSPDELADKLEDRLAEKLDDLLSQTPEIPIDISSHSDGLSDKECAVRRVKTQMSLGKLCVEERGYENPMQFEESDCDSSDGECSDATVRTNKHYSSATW
In short: as §1

EPHA7 = EPHA7 (Homo sapiens, UniProt Q15375)
In short: as §1

p38-alpha = molecular target: T6, p38-alpha (Homo sapiens, UniProt Q16539)
T6 construct: gene MAPK14
In short: as §1

EGFR = EGFR (Homo sapiens, UniProt P00533)
In short: as §1

IKK-beta = molecular target: T7, IKK-beta (Homo sapiens, UniProt O14920)
T7 construct: gene IKBKB
In short: as §1

CAMK2G = CAMK2G (Homo sapiens, UniProt Q13555)
In short: as §1

DCAMKL1 = molecular target: T8, DCAMKL1 (Homo sapiens, UniProt O15075)
T8 construct: gene DCLK1
In short: as §1

MLK2 = molecular target: T9, MLK2 (Homo sapiens, UniProt Q02779)
T9 construct: gene MAP3K10
In short: as §1

EPHA8 = EPHA8 (Homo sapiens, UniProt P29322)
In short: as §1

KIT-autoinhibited = KIT-autoinhibited (Homo sapiens, UniProt P10721)
In short: as §1

PAK7 = molecular target: T10, PAK7 (Homo sapiens, UniProt Q9P286)
T10 construct: gene PAK5
In short: as §1

T1 sequence (P28482 whole entry): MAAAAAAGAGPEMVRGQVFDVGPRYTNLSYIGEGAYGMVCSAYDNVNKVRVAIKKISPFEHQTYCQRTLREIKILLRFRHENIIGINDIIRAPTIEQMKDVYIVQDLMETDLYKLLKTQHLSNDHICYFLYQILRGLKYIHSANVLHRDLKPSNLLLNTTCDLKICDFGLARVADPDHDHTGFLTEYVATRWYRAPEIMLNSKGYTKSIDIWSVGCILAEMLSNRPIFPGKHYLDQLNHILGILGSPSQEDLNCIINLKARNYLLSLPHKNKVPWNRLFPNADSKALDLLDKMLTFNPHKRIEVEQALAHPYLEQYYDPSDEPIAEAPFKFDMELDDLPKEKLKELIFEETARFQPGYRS

inhibition at 1 µM (ERK2): 0%
inhibition at 1 µM (PDGFRA): 10%
inhibition at 1 µM (MAP4K5): 3%
inhibition at 1 µM (TIE2): 6%
inhibition at 1 µM [1]: 4%
inhibition at 1 µM (CSNK1E): 0%
inhibition at 1 µM (DAPK2): 0%
inhibition at 1 µM (ALK): 10%
inhibition at 1 µM (INSRR): 22%
inhibition at 1 µM [2]: 3%
inhibition at 1 µM (AXL): 9%
inhibition at 1 µM (PRKD2): 13%
inhibition at 1 µM (CSF1R-autoinhibited): 32%
inhibition at 1 µM (LZK): 16%
inhibition at 1 µM (EPHA7): 27%
inhibition at 1 µM (p38-alpha): 0%
inhibition at 1 µM (EGFR): 0%
inhibition at 1 µM (IKK-beta): 37%
inhibition at 1 µM (CAMK2G): 0%
inhibition at 1 µM (DCAMKL1): 9%
inhibition at 1 µM (MLK2): 0%
inhibition at 1 µM (EPHA8): 3%
inhibition at 1 µM (KIT-autoinhibited): 19%
inhibition at 1 µM (PAK7): 0%
Compound: CNS(=O)(=O)c1ccc(N(C)C)c(Nc2nc(C)nc3cc(OC)c(OC)cc23)c1 [compound 15, 3-((6,7-dimethoxy-2-methylquinazolin-4-yl)amino)-4-(dimethylamino)-N-methylbenzenesulfonamide]
